Source: patent publication US12453722B2, “Maleate of nicotinyl alcohol ether derivative, crystal form thereof, and application thereof” (INSTITUTE OF MATERIA MEDICA, CHINESE ACADEMY OF MEDICAL …, priority 2019, dated 2025)
“And” between values parts separate entries of the source, which are not always exact repeats. Identical values can stand only once. Marks after values point to notes of the source that are not given here.

Experiments:
mouse melanoma B16F10 = experiment: In vivo antitumor effect, subcutaneous transplanted tumor model of mouse melanoma B16F10; details: for TGI %: B16F10, TGI=(1-T/C)×100 by tumor weight
Method: The in vivo antitumor effects of the compound of Example 1 and the compound of Example 2 as PD-L1 inhibitors on mouse melanoma B16F10 were evaluated on the subcutaneous transplanted tumor model of mice.
(§1) Experimental steps: the subcultured B16F10 tumor strain was ground with a homogenizer, washed twice with sterile normal saline and counted, and the cell concentration of tumor cell suspension was adjusted with normal saline to 9×10^6/ml. 0.2 ml of the cell suspension was inoculated into the right armpit of C57BL/6J mice and the day was recorded as day 0. The next day after inoculation, the animals were randomly divided into groups, weighed and administered. The mice in the solvent control group were administrated with 0.5% CMC orally every day. […] The compounds to be tested were administered orally once a day. The animals were weighed and killed during treatment. The tumor tissues were stripped, weighed and photographed. Finally, the tumor inhibition rates were calculated to evaluate the intensity of antitumor effect.
(§2) Calculation and statistical method: tumor proliferation inhibition rate TGI (%): TGI=(1-T/C)×100. (T: tumor weight in the treatment group; C: tumor weight in the negative control group). Statistical method: Graphpad was used for data statistical analysis, and One-way ANOVA test was used, * P<0.05, * * P<0.01, * * * P<0.001.

mouse colon cancer MC38 = experiment: In vivo antitumor effect, subcutaneous transplanted tumor model of mouse colon cancer MC38; details: for Body weight (g) X ± SD, End / Body weight (g) X ± SD, Start / Tumor weight (g) X ± SD: MC38, C57BL/6J mice; for TGI %: MC38, TGI=(1-T/C)×100 by tumor weight
Method: The in vivo antitumor effects of the compound of Example 1 and the compound of Example 2 as PD-L1 inhibitors on mouse colon cancer MC38 were evaluated on the subcutaneous transplanted tumor model of mice.
as §1, with “MC38” for “B16F10”, “9×10^6/ml,” for “9×10^6/ml.”
as §2, with “group:” for “group;”

[1] = test system: human lung cancer NCI-H460; experiment: In vivo antitumor effect, human lung cancer NCI-H460 model in NSG mice reconstructed by human immune system; details: for Tumor volume X ± SD, Day 1 / Tumor volume X ± SD, Day 20 / Tumor weight (g) X ± SD: NCI-H460, NSG mice with human PBMCs; for TGI %: NCI-H460, TGI=(1-T/C)×100 by tumor weight
Method: The in vivo antitumor effects of the compound of Example 1 and the compound of Example 2 as PD-L1 inhibitors were evaluated on the NCI-H460 model of human lung cancer in NSG tumor-bearing mice reconstructed by human immune system. […]
Experimental steps: PBMCs were obtained by isolation of fresh human leukocytes, then inoculated into NSG mice through caudal vein, and each mouse was inoculated with 1×10^7. On the third day. NCI-H460 tumor cells were inoculated into the armpit of mice, and each mouse was inoculated with 1×10^6. After the tumors grew to 100˜300 mm^3, the mice were administered in groups. The mice in the solvent control group were administrated with 0.5% CMC orally every day. […] The compounds to be tested were administered orally once a day. The animals were weighed and killed during treatment. The tumor tissues were stripped, weighed and photographed. Finally, the tumor inhibition rates were calculated to evaluate the intensity of antitumor effect.
as §2, with “group:” for “group;”

[2] = log P (physical and chemical properties); assay type: physicochemical
[3] = Influencing factor test (stability at high temperature, high humidity, illumination); assay type: physicochemical
Method: When the temperature rose to the top of DSC endothermic peak (about 175° C.), the weight loss was obvious, which was the weight loss caused by the melting decomposition of the sample. The DSC endothermic peak was the decomposition point of the compound of Example 2. 4.
• (1) Physical and chemical properties • Appearance: white solid • Melting point: 174.68° C.
The compound of Example 2 was stable under the conditions of illumination, high temperature and high humidity.

[4] = test system: pleural mesothelioma (PM); details: 25 patients with pleural mesothelioma (PM); cited from earlier work
[5] = 80 × 1 mg/kg, intraperitoneal, B16F10, C57BL/6J mice, 1 mg/kg
[6] = 5 × 14 mg/kg, oral once a day, B16F10, C57BL/6J mice
[7] = 10 × 14 mg/kg, oral once a day, B16F10, C57BL/6J mice
[8] = 2.5 × 14 mg/kg, oral once a day

Compound: O=P1(N(CCCl)CCCl)NCCCO1 (stereo not drawn) [CTX, cyclophosphamide]
- Body weight (g) X ± SD, End (mouse melanoma B16F10; [5]): 19.2 ± 0.8 g and 17.5 ± 0.9 g
- Body weight (g) X ± SD, Start (mouse melanoma B16F10; [5]): 16.94 ± 0.43 g and 16.9 ± 0.8 g
- TGI % (mouse melanoma B16F10; 80 × 1 mg/kg, intraperitoneal, 1 mg/kg): 90% and 70%
- Body weight (g) X ± SD, End (mouse colon cancer MC38; 40 × 1 mg/kg, intraperitoneal): 21.7 ± 1.4 g
- Body weight (g) X ± SD, Start (mouse colon cancer MC38; 40 × 1 mg/kg, intraperitoneal): 18.8 ± 0.9 g
- Tumor weight (g) X ± SD (mouse colon cancer MC38; 40 × 1 mg/kg, intraperitoneal): 1.30 ± 1.44** g
- TGI % (mouse colon cancer MC38; 40 × 1 mg/kg, intraperitoneal): 67%
- Body weight (g) X ± SD, End (mouse colon cancer MC38; 40 × 2 mg/kg, intraperitoneal): 24.5 ± 0.9 g
- Body weight (g) X ± SD, Start (mouse colon cancer MC38; 40 × 2 mg/kg, intraperitoneal): 22.0 ± 0.8 g
- Tumor weight (g) X ± SD (mouse colon cancer MC38; 40 × 2 mg/kg, intraperitoneal): 0.17 ± 0.10** g
- TGI % (mouse colon cancer MC38; 40 × 2 mg/kg, intraperitoneal): 90%
- Tumor volume X ± SD, Day 1 ([1]; 100 × 1 mg/kg, intraperitoneal): 165.4 ± 22.4
- Tumor volume X ± SD, Day 20 ([1]; 100 × 1 mg/kg, intraperitoneal): 556.5 ± 81.1
- Tumor weight (g) X ± SD ([1]; 100 × 1 mg/kg, intraperitoneal): 0.90 ± 0.15*** g
- TGI % ([1]; 100 × 1 mg/kg, intraperitoneal): 66.9%

Compound: CC(C)OC(=O)[C@H](CO)NCc1cc(Cl)c(OCc2cccc(-c3ccccc3)c2Br)cc1OCc1cccnc1.Cl.Cl [Example 1, isopropyl (S)-N-[2-(pyridine-3-yl-methoxy)-4-(2-bromo-3-(phenyl)benzyloxy)-5-chlorobenzyl] serinate hydrochloride]
- logP [2]: 2.4
- Appearance ([3]; 60° C., 5 days): off white powder
- Melting point (DSC method, ° C.) ([3]; 60° C., 5 days): 118.69 °C
- Purity (%) ([3]; 60° C., 5 days): 99.5%
- Related substances (%) ([3]; 60° C., 5 days): 0.5%
- Appearance ([3]; Illumination, 5 days): transparent bulk
- Purity (%) ([3]; Illumination, 5 days): 96.0%
- Related substances (%) ([3]; Illumination, 5 days): 4.0%
- Stability under illumination conditions ([3]; Illumination, 5 days): unstable
- Appearance ([3]; Initial): off white powder
- Melting point (DSC method, ° C.) ([3]; Initial): 119.36 °C
- Purity (%) ([3]; Initial): 99.5%
- Related substances (%) ([3]; Initial): 0.5%
- Purity (%) ([3]; RH 92.5%, 5 days): 99.5%
- Appearance ([3]; RH 92.5%, 5 days, hydrochloride): colorless viscous liquid
- Moisture absorption ([3]; high humidity of RH92.5%, 5 days): serious moisture absorption
- Stability under high temperature conditions ([3]; high temperature of 60° C., 5 days): stable
- Tumor weight (g) X ± SD (mouse melanoma B16F10; [6]): 3.11 ± 0.98* g
- TGI % (mouse melanoma B16F10; 5 × 14 mg/kg, oral once a day): 11%
- Tumor weight (g) X ± SD (mouse melanoma B16F10; [7]): 3.04 ± 0.94** g
- TGI % (mouse melanoma B16F10; 10 × 14 mg/kg, oral once a day): 13%
- Tumor weight (g) X ± SD (mouse colon cancer MC38; 5 × 14 mg/kg, oral once a day): 3.21 ± 0.28*** g
- TGI % (mouse colon cancer MC38; 5 × 14 mg/kg, oral once a day): 18%
- Tumor weight (g) X ± SD (mouse colon cancer MC38; 10 × 14 mg/kg, oral once a day): 2.86 ± 1.36** g
- TGI % (mouse colon cancer MC38; 10 × 14 mg/kg, oral once a day): 27%
- Tumor volume X ± SD, Day 1 ([1]; 15 × 14 mg/kg, oral once a day): 161.9 ± 21.0
- Tumor volume X ± SD, Day 20 ([1]; 15 × 14 mg/kg, oral once a day): 1441.4 ± 337.6
- Tumor weight (g) X ± SD ([1]; 15 × 14 mg/kg, oral once a day): 2.06 ± 0.22 g
- TGI % ([1]; 15 × 14 mg/kg, oral once a day): 24.7%

Compound: Keytruda: first FDA approved PD-1 monoclonal antibody, from Merck
- disease control rate [4]: 76%
- overall response rate (ORR) [4]: 28%

Compound: CC(C)OC(=O)[C@H](CO)NCc1cc(Cl)c(OCc2cccc(-c3ccccc3)c2Br)cc1OCc1cccnc1.O=C(O)/C=C\C(=O)O [Example 2, isopropyl (S)-N-(2-(pyridine-3-yl-methoxy)-4-(2-bromo-3-phenylbenzyloxy)-5-chlorobenzyl) serinate maleate]
- log P [2]: 3.2
- Appearance ([3]; 60° C., 10 days): white
- Chiral impurities (%) ([3]; 60° C., 10 days): 0.2%
- Melting point (DSC method, ° C.) ([3]; 60° C., 10 days): 174.64 °C
- Purity (%) ([3]; 60° C., 10 days): 98.7%
- Related substances (%) ([3]; 60° C., 10 days): 1.3%
- Appearance ([3]; Illumination, 10 days): white
- Chiral impurities (%) ([3]; Illumination, 10 days): 0.2%
- Melting point (DSC method, ° C.) ([3]; Illumination, 10 days): 174.60 °C
- Purity (%) ([3]; Illumination, 10 days): 98.6%
- Related substances (%) ([3]; Illumination, 10 days): 1.4%
- Appearance ([3]; Initial): white
- Chiral impurities (%) ([3]; Initial): 0.2%
- Melting point (DSC method, ° C.) ([3]; Initial): 174.68 °C
- Purity (%) ([3]; Initial): 98.7%
- Related substances (%) ([3]; Initial): 1.3%
- Appearance ([3]; RH 92.5%, 10 days): white
- Chiral impurities (%) ([3]; RH 92.5%, 10 days): 0.2%
- Melting point (DSC method, ° C.) ([3]; RH 92.5%, 10 days): 174.57 °C
- Purity (%) ([3]; RH 92.5%, 10 days): 98.7%
- Related substances (%) ([3]; RH 92.5%, 10 days): 1.3%
- Stability under illumination, high temperature and high humidity ([3]; illumination, 60° C., RH 92.5%, 10 days): stable
- Tumor weight (g) X ± SD (mouse melanoma B16F10; [6]): 1.39 ± 0.84* g
- TGI % (mouse melanoma B16F10; 5 × 14 mg/kg, oral once a day): 40%
- Tumor weight (g) X ± SD (mouse melanoma B16F10; [7]): 1.04 ± 0.66** g
- TGI % (mouse melanoma B16F10; 10 × 14 mg/kg, oral once a day): 55%
- Comparison of tumor inhibition rate at the same dosage (mouse melanoma B16F10; Tumor model B16F10): Compound of the Example 2 (maleate) > Compound
- Tumor weight (g) X ± SD (mouse colon cancer MC38; [8]): 1.13 ± 0.78 g
- TGI % (mouse colon cancer MC38; [8]): 34%
- Tumor weight (g) X ± SD (mouse colon cancer MC38; 5 × 14 mg/kg, oral once a day): 0.42 ± 0.39*** g
- TGI % (mouse colon cancer MC38; 5 × 14 mg/kg, oral once a day): 75%
- Tumor weight (g) X ± SD (mouse colon cancer MC38; 10 × 14 mg/kg, oral once a day): 0.73 ± 0.54** g
- TGI % (mouse colon cancer MC38; 10 × 14 mg/kg, oral once a day): 57%
- Comparison of tumor inhibition rate at the same dosage (mouse colon cancer MC38; Tumor model MC38): Compound of the Example 2 (maleate) > Compound
- Tumor volume X ± SD, Day 1 ([1]; 15 × 14 mg/kg, oral once a day): 166.5 ± 24.5
- Tumor volume X ± SD, Day 20 ([1]; 15 × 14 mg/kg, oral once a day): 1405.2 ± 442.9
- TGI % ([1]; 15 × 14 mg/kg, oral once a day): 30.6%
- Comparison of tumor inhibition rate at the same dosage ([1]; Tumor model NSG NCI-H460): Compound of the Example 2 (maleate) > Compound
